Columns and labels:
Experiment in all cases: SPR, lipid vesicles on L1 chip, steady-state fit
Conditions in all cases: 10% (mole/mole) lipid in DOPC vesicles; HBS pH 7.4; 25 °C
[1] = target: T1, TNFAIP8 (Mus musculus, UniProt Q921Z5); type: binding
T1 construct: isoform 1; pET-SUMO, N-terminal 6His-SUMO tag cleaved off by SUMO protease; E. coli BL21(DE3); untagged native protein
T1 sequence (Q921Z5 1-198): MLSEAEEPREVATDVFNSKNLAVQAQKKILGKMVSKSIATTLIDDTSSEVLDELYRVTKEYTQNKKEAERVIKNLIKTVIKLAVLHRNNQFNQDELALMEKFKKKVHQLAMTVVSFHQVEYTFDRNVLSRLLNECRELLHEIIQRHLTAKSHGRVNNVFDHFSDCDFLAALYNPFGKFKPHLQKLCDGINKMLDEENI

[2] = target: T2, GRP1-PH
T2 construct: gene CYTH3; N-terminal 6His-SUMO tag cleaved off; E. coli BL21(DE3)
Text: SPR, lipid vesicles on L1 chip, steady-state fit on GRP1-PH | Purified PLCδ-PH and GRP1-PH domains were used as positive controls

[3] = target: T3, PLCδ-PH
T3 construct: gene PLCD1; N-terminal 6His-SUMO tag cleaved off; E. coli BL21(DE3)
Text: SPR, lipid vesicles on L1 chip, steady-state fit on PLCδ-PH | Purified PLCδ-PH and GRP1-PH domains were used as positive controls

Row | Kd [1] [nM] | Kd [2] [nM] | Kd [3] [nM] | Substance
1 | 4060 | 980 ± 690 |  | PtdIns(3,4,5)P3
2 | 3160 |  | 2100 ± 1550 | PtdIns(4,5)P2

Source: paper PMC7170861, “The TIPE Molecular Pilot That Directs Lymphocyte Migration in Health and Inflammation” (Scientific Reports, 2020)
